Measurements as given in US20230152324A1, “TUMOR-INTRINSIC NLRP3 INFLAMMASOME SIGNALING PATHWAY AS A GENETIC AND FUNCTIONAL BIOMARKER FOR IMMUNOTHERAPY RESPONSE” (Duke University, priority 2021, published 2023).

Tested on: mice bearing BRAF^V600EPTEN^−/− melanomas
Assay: Lung fibronectin expression (qrt-PCR, IHC) in BRAFV600EPTEN−/− melanoma-bearing mice
Assay type: in vivo, mouse
Conditions: anti-PD-1 vs anti-PD-1/Wnti treated tumor-bearing mice
Description: Prior studies have shown that the arrival of […] (HPC) expressing vascular endothelial growth factor receptor-1 (VEGFR1) in the lung as well as increased fibronectin expression by local fibroblasts contribute to the formation of a pre-metastatic niche that subsequently supports metastatic progression (35). Using multi-parameter flow cytometry, we indeed observed an increase in a c-kit^+CD133^+CD34^+VEGFR1^+ HPC (VEGFR1^+ HPC) population in mice harboring BRAF^V600EPTEN^−/− melanomas relative to non-tumor-bearing controls. […]
Small representative tissue specimens were harvested from tumors and lungs and stored in RNAlater at −80° C. […] Total RNA was isolated by RNeasy Plus Mini Kit (Qiagen, 74134) and RNA was quantified by NanoDrop. […] All data were normalized to Actb expression and relative gene expression was quantitated based on the 2ΔΔCt method. Relative mRNA levels of the following genes were measured: Cxcl5, Cxcl1, Cxcl2, Trp2, Csf3, Il1b, Fn1, Tgfb, Tgfbr2, Spp1, and Hsp70.
Paraffin-Sections (5-μm) from primary melanomas and lung tissues were processed using standard protocols for immunohistochemistry (IHC) and immunofluorescence (IF) staining. […] PMN-MDSC quantitation by Ly6G-staining, and CD8^+ T cell quantitation by CD8a-staining were performed at 20× magnification and 6-8 random fields were averaged per section over 3-4 sections per specimen. […]

Question: How did the “tumor-dependent upregulation of fibronectin expression levels in the lungs” value turn out when `Cn1c(=O)c2c(ncn2CC(=O)Nc2ccc(-c3ccccc3)nn2)n(C)c1=O` [ETC-159] was run?
Answer: reversed
